From US9187458B2, “Cyanoquinoline derivatives” (Tianjin Hemay Bio-Tech Co., LTD., priority 2010, dated 2015)
Each block holds one compound with its values, some of them ahead of it.

How the values were obtained:
Her2 kinase = target: T1, Her2 kinase (Homo sapiens, UniProt P04626); assay: Inhibition Activity Assay on Her2 Enzyme (ELISA, PGT substrate); assay type: biochemical; details: 8 min at 4° C., read-out: Inhibition Activity (EC50) on Her-2
T1 construct: purchased Cell Signaling Tech #7382
Procedure: Inhibition Activity Assay on Her2 Enzyme
1. Her2 kinase, Cell Signaling Tech, #7382, Lot. 2, reserved at −80° C.;
2. PBST: PBS+0.05% (v/v) Tween 20;
3. Confining liquid: 3% of BSA in PBS;
4. HEPEs buffer (2×): 50 mM HEPEs, 20 mM MgCl2, 0.1 mM MnCl2, 0.2 mM Na3VO4, adjusted to pH of 7.4 with NaOH;
5. PGT, Sigma, Cat#P0275): 2 mg/ml of stock solution was prepared by dissolving PBS, reserved at −20° C.
6. ATP: […] of stock solution was prepared by dissolving ddH2O, reserved at −20° C.;
7. Mice anti-phosphorylation tyrosine-HRP: Invitrogen-037720, 0.5 mg/ml, reserved at 4° C.;
8. TMB: Cell Signaling Tech, Cat #7004L;
9. DTT: 2.5 M of stock solution was prepared with ddH2O, reserved at −20° C. Before use, 2×HEPEs buffer was added in the solution to the final concentration of 1.25 mM.
1. 2 mg/ml of PGT was diluted with PBS to 0.2 mg/ml. 60 μl of the resulting solution was added in each well. The elisa plate was placed in a refrigerator at 4° C. and coated overnight;
2. The coating solution was discarded to stop the coating. The plate was washed four times with PBS, and then beaten to dryness;
3. The elisa plate was placed in a refrigerator at 4° C., drained out and stood for 3h.
4. […] of aqueous solution of each compound was diluted with ddH2O to a desirable concentration. Then, the solution was added in the corresponding elisa well by 25 μl/well;
5. 2 nM of ATP solution was diluted with ddH2O to 25 folds and then sufficiently mixed. The resulting solution was separately added in each elisa well by 25 μl per well (25 μl ddH2O was added in the negative control);
6. Her2 kinase was diluted with 2×TKB to 800 folds. The resulting solution was added in the elisa well by 50 μl per well. Then, the enzyme reaction began. Moreover, the elisa plate was immediately placed in a micro-oscillator. The reaction is carried out for 8 min at the temperature of 4° C.;
7. 2% of SDS was added in the elisa well to stop the reaction by adding 100 μl of SDS in each well. The solution was sufficiently mixed on the micro-oscillator to sufficiently mix for about 5 min;
(§1) 8. The reaction solution was sucked out. The plate was washed four times with PBST. After the plate was beaten to dryness, 0.25 μg/ml of mice anti-phosphorylation tyrosine-HRP which was diluted with confining liquid was added in the plate by 100 μl per well, and then reacted for 30 min at the room temperature.
9. The antibody reaction solution was sucked out. The plate was washed six times with PBST. After the plate was beaten to dryness, TMB peroxidase substrate was added in the plate with 100 μl/well, and then reacted in the dark for 15 min at the room temperature;
10. 100 μl of 2N H2SO4 was added in the solution to stop the chromogenic reaction. After the bubbles were cleansed, the solution was measured in elisa at 450 nm.
OD values were converted in relative inhibition ratios according to following formula: Relative inhibition ratio=[1−(experiment values−NC mean values)/(PC mean values−NC mean values)]×100%

SK-OV-3 cells = assay: SK-OV-3 Cell Growth Inhibition Test (MTT Assay); assay type: cell-based; details: Homo sapiens, 72 h incubation
Procedure: SK-OV-3 Cell Growth Inhibition Test (MTT Assay)
Cell strains: SK-OV-3 (human ovarian cancer cell strains);
Culture medium: 90% McCoy's 5A+10% FBS;
(§2) 1. A plate (10 cm) of cells in logarithmic growth phase normally cultured was collected;
(§3) 2. The culture solution was sucked out. The plate was washed with 5 ml of PBS 1-2 times;
(§4) 3. PBS was sucked out. 1.5 ml of 0.25% pancreatin was added to infiltrate the cells for 1 min;
(§5) 4. The pancreatin was sucked out. The culture plate was placed in an incubator. Digestion was carried out for about 5 min at 37° C.;
(§6) 5. 4.5 ml of complete culture solution was added to the culture plate to stop the digestion.T the cells were carefully scoured with micropipette (1 ml) to give a uniform cell suspension. The suspension was implanted into a 96-well cell culture disc by 4000 cells/100 μl per well. The culture plate was incubated overnight under 5% CO2 at 37° C. In day 2, 100 μl of culture solution comprising a compound was added in each well, and further incubated for 72 h under 5% CO2 at 37° C.
(§7) 6. The culture solution was sucked out;
(§8) 7. 100 μl of serum-free culture solution containing 0.5 mg/ml MTT was added in each well, and incubated for 3 h;
(§9) 8. The culture solution was carefully sucked out;
(§10) 9. 100 μl of DMSO was added in each well and vibrated to dissolve;
(§11) 10. OD values were determined at 490 nM.
(§12) 1. Calculation of Relative Inhibition Ratio The inhibition ratio of a compound on cell growth=(PC−n)/(PC−NC)×100%
(§13) IC50: Concentration of a compound where inhibition ratio was 50%. IC50 values were fitted with Origin7.5.

CCRF-CEM/T cells = assay: CCRF-CEM/T Cell Growth Inhibition Test (MTT Assay); assay type: cell-based; details: Homo sapiens, CCRF-CEM/T cells (resistant to paclitaxel), 72 h incubation
Procedure: CCRF-CEM/T Cell Growth Inhibition Test (MTT Assay)
Cell strains: CCRF-CEM/T (human acute lymphocytic cell leukemia cells);
triple lysate solution: 10% SDS, 5% isobutanol, 0.012M HCl.
1. Cells were cultured to exponential phase. The cells were suspension cells;
2. The cells were collected by centrifuge. The resulting cells were resuspended in a complete culture medium to a desired concentration. The cells suspension was implanted into a 96-well cell culture plate by 20000 cells per well. A compound was added in the wellsuch that the final volume of the system was 120 μl. The system was further incubated for 72 h under 5% CO2 at 37° C.
7. 30 μl of serum-free culture solution containing 2.5 mg/ml MTT was added in each well, and incubated for 3 h;
8. 150 μl of triple lysate solution was added in each well and placed to dissolve at the room temperature;
9. OD values were determined at 570 nM.
as §12, §13

AsPC-1 cells = assay: AsPC-1 Cell Growth Inhibition Test (MTT Assay); assay type: cell-based; details: Homo sapiens, ASPC1, 72 h incubation
Procedure: AsPC-1 Cell Growth Inhibition Test (MTT Assay)
Cell strains: AsPC-1 (human pancreatic cancer cell strains);
as §2, §3, §4
4. The pancreatin was sucked out. The culture plate was placed in an incubator. Digestion was carried out for about 7.5 min at 37° C.;
as §6, with “digestion. The” for “digestion.T the”, “plate” for “disc”, “8000” for “4000”
as §7, §8, §9
(§14) 9. 100 μl of DMSO was added in each welland vibrated to dissolve;
as §11, §12, §13

Fadu cells = assay: Fadu Cell Growth Inhibition Test (MTT Assay); assay type: cell-based; details: Homo sapiens, 72 h incubation
Procedure: Fadu Cell Growth Inhibition Test (MTT Assay)
Cell strains: Fudu (human head and neck cancer cell strains);
Culture medium: 90% EMEM+10% FBS;
as §2, §3, §4, §5
as §6, with “digestion. The” for “digestion.T the”, “plate” for “disc”, “6000” for “4000”
as §7, §8, §9, §14, §11, §12, §13

NCI-H460 cells = assay: NCI-H460 Cell Growth Inhibition Test (MTT Assay); assay type: cell-based; details: Homo sapiens, 72 h incubation
Procedure: NCI-H460 Cell Growth Inhibition Test (MTT Assay)
1. Cell strains: NCI-H460 (human large cell lung cancer cell strains);
as §2, §3
3. PBS was sucked out. 2 ml of 0.25% pancreatin was added to infiltrate the cells for 1 min;
4. The pancreatin was sucked out. The culture plate was placed in an incubator. Digestion was carried out for about 2 min at 37° C.;
as §6, with “4” for “4.5”, “digestion. The” for “digestion.T the”, “plate” for “disc”, “2500” for “4000”
as §7, §8, §9, §10, §11, §12, §13

EGFR-TK = target: T2, EGFR-TK (Homo sapiens, UniProt P00533); assay: Inhibition Test on EGFR-TK (ELISA, PGT substrate); assay type: biochemical; details: 20 min at room temperature, read-out: Inhibition Activity (EC50) on EGFR-TK phosphorylation
T2 construct: EGFR-TK: intracellular epidermal growth factor receptor phosphorylase
Procedure: Inhibition Test on EGFR-TK
1. 2 mg/ml of PGT was diluted with PBS to 0.2 mg/ml. The resulting solution was added into elisa plate by 50 μl per well. The plate was placed in a refrigerator at 4° C. and coated overnight.
2. The coating solution was discarded to stop coating. The plate was washed three times with PBS, and then beaten to dryness.
3. The elisa plate was placed in a refrigerator at 4° C., drained out and stood for 2h.
4. The mother liquid of aqueous solution of each compound was diluted with double distilled water to four folds, i.e. a desirable concentration. Then, the compound was diluted and added in the corresponding elisa well by 25 μl/well.
5. […] of ATP solution was diluted with double distilled water to 50 folds and then sufficiently mixed. The resulting solution was separately added in each elisa well by 25 μl per well (except for the negative control).
6. EGFR kinase was diluted with 2×TKB to 800 folds. The solution was added in elisa well with 50 μl per well. Then, the enzyme reaction began. The elisa plate was immediately placed on a micro-oscillator and shaked to react for 20 min at the room temperature.
7. 2% of SDS was added in the elisa well to stop the reaction by adding 100 μl of SDS into each well. The solution was sufficiently mixed on the micro-oscillator to sufficiently mix for about 5 min.
as §1, with “tyrosine-HRP antibody” for “tyrosine-HRP”, “blocking solution (3% solution of BSA in PBST)” for “confining liquid”, “well. The mixture was” for “well, and then”
9. The antibody reaction solution was sucked out. The plate was washed four times with PBST. After the plate was beated to dryness, TMB peroxidase substrate was added to the plate by 100 μl/well. The mixture reacted in the dark for 15 min at the room temperature.
10. 100 μl of 2N H2SO4 was added in the plate to stop the chromogenic reaction. After the bubbles were cleansed, OD values were determined in ELIASA at 450 nm.
11. Formula for calculating inhibition percentage: […]

T2 sequence (P00533 669-1210 limits assumed): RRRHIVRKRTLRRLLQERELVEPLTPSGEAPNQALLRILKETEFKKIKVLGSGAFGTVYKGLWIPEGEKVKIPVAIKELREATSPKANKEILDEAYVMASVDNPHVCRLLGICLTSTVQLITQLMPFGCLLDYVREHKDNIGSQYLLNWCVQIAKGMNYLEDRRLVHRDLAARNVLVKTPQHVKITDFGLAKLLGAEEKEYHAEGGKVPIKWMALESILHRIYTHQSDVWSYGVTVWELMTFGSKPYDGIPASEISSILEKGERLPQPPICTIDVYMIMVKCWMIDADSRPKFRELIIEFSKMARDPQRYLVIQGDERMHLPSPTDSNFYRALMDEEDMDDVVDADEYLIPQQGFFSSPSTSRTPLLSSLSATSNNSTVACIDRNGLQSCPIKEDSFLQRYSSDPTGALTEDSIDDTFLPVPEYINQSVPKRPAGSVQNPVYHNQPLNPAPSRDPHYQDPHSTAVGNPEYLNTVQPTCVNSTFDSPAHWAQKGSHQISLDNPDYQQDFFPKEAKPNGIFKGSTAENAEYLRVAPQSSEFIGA
T1 sequence (P04626 676-1255 limits assumed): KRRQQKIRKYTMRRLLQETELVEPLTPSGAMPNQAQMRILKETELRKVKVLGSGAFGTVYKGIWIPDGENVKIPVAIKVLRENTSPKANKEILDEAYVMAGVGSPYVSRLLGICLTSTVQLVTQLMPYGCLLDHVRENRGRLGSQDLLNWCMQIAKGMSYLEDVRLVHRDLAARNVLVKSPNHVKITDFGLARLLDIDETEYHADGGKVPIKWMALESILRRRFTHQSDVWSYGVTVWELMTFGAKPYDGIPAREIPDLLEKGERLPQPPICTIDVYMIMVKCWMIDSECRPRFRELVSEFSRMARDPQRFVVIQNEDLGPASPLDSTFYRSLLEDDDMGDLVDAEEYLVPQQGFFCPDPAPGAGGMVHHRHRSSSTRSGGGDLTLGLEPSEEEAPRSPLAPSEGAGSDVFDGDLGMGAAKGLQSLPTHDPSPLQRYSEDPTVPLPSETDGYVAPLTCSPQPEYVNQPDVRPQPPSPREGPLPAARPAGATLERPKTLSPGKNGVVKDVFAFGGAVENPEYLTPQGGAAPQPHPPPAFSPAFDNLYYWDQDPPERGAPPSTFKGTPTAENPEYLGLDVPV

- EC50 (Her2 kinase): 291 nM
Structure (SMILES): N#Cc1cnc2cc(OC3CCOC3)c(NC(=O)C=C3CCNCC3)cc2c1Nc1ccc(F)c(Cl)c1 (stereo not shown) [Example 42, N-(4-(3-CHLORO-4-FLUOROPHENYLAMINO)-3-CYANO-7-(TETRAHYDROFURAN-3-YL-OXY)QUINOLIN-6-YL)-2-(PIPERIDIN-4-YLIDENE)ACETAMIDE]

- IC50 (SK-OV-3 cells): 331 nM
- IC50 (CCRF-CEM/T cells): 1800 nM
- IC50 (AsPC-1 cells): 770 nM
Structure (SMILES): CN(C)C/C=C/C(=O)Nc1cc2c(Nc3ccc(OCc4ccccn4)c(Cl)c3)c(C#N)cnc2cc1OC1CCOC1 (stereo not shown) [Example 2, (E)-N-(4-(3-CHLORO-4-(PYRIDIN-2-YL-METHOXY)PHENYLAMINO)-3-CYANO-7-(TETRAHYDROFURAN-3-YL-OXY)QUINOLIN-6-YL)-4-(DIMETHYLAMINO)-BUT-2-ENAMIDE]
- IC50 (Fadu cells): 149 nM

- IC50 (NCI-H460 cells): 4000 nM
- EC50 (EGFR-TK): 25 nM
Structure (SMILES): N#Cc1cnc2cc(OC3CCOC3)c(NC(=O)C=C3CCNCC3)cc2c1Nc1ccc(OCc2cccc(F)c2)c(Cl)c1 (stereo not shown) [Example 46, N-(4-(4-(3-FLUOROBENZYLOXY)-3-CHLOROPHENYLAMINO)-3-CYANO-7-(TETRAHYDROFURAN-3-YL-OXY)QUINOLIN-6-YL)-2-(PIPERIDIN-4-YLIDENE)ACETAMIDE]
